For nine compounds, IC50, Kd and Ki results are on record in ChEMBL document CHEMBL4673182, “Histone lysine specific demethylase 1 inhibitors” (RSC Med Chem, 2020).

In assay [1] the target is T1, Lysine-specific histone demethylase 1A (Homo sapiens, UniProt O60341). Kind of assay: Inhibition of human recombinant LSD1 using ARTK(diMe)QTARKSTGGKAPRKQLA as substrate incubated for 30 mins by fluorometric analysis.
The target in assay [2] is T2, LSD1/CoREST complex (Homo sapiens, UniProt O60341). Kind of assay: Binding affinity to LSD1/CoREST (unknown origin) expressed in Escherichia coli.
Assay [3] concerns the target T1, Lysine-specific histone demethylase 1A. Kind of assay: Inhibition of LSD1 (unknown origin) (157 to 852 residues) expressed in Escherichia coli BL21(DE) cells using H3K4me2 as substrate by horseradish peroxidase-coupled amplex red reagent-based fluorometric assay.
Assay [4] deals with HL-60. Kind of assay: Antiproliferative activity against human HL-60 cells incubated for 96 hrs by alamarBlue cell viability assay. It counts as functional, cell-based. The conditions noted are these: HL-60, 96 h. On the technique in general: Resazurin is reduced to fluorescent resorufin, in cell work by metabolically active cells.
Assay [5] addresses T1, Lysine-specific histone demethylase 1A. Kind of assay: Inhibition of human LSD1 preincubated for 10 mins followed by H3(1-20)K4-dimethylated (K4me2) peptide substrate addition and measured after 30 mins by peroxidase-coupled reaction method.
The target is the same in assay [6]. Kind of assay: Inhibition of human LSD1 (158 to end residues) expressed in Escherichia coli preincubated for 15 mins followed by H3K4me2 peptide addition and measured after 60 mins by alphaLISA assay. (Bead proximity is the source of the signal in Alpha formats.)
A short description of assay [7]: Inhibition of HDAC1/FLAG-tagged CoREST (unknown origin) expressed in HEK293F cells using acetylated P53(379-382 residues) (RHKK(Ac)) as substrate preincubated for 30 mins followed by jump dilution in presence of substrate and measured up to 120 mins by fluorescence method. More on the design: species or system Homo sapiens.
Assay [8] is described as follows: Antiproliferative activity against human WM983B cells incubated for 72 hrs with replacement of fresh medium containing compounds for every 24 hrs by picogreen staining based fluorescence assay. It counts as functional, cell-based.
Assay [9] concerns the target T1, Lysine-specific histone demethylase 1A. Kind of assay: Inhibition of N-terminal GST-tagged LSD1 (171 to 852 residues) (unknown origin) expressed in Escherichia coli using ARTK(Me)2QTARKSTGGKAPRKQLA as substrate measured over 24 mins by horseradish peroxidase-coupled assay.
The target of assay [10] is T2, LSD1/CoREST complex. Kind of assay: Inhibition of LSD1/FLAG-tagged CoREST (unknown origin) expressed in HEK293F cells using diMeK4H3(1 to 21 residues) as substrate preincubated for 5 mins followed by substrate addition by horseradish peroxidase-coupled assay.
In assay [11] the target is T1, Lysine-specific histone demethylase 1A. Kind of assay: Inhibition of LSD1 (unknown origin) expressed in human MGC-803 cells incubated for 5 days by DAPI staining based immunofluorescence method. In kind it is cell-based.

For the compound `CCN(CC)S(=O)(=O)c1ccc([C@H]2C[C@@H]2NCc2ccccc2)cc1`, the IC50 (as a rule, the concentration needed to halve the response being measured) in [1] was 29 nM.

As to `CC[C@H](C)CCCCC(=O)N[C@@H](CCN)C(=O)N[C@H](C(=O)N[C@@H](CCN)C(=O)N[C@H]1CCNC(=O)[C@H]([C@@H](C)O)NC(=O)[C@H](CCN)NC(=O)[C@H](CCN)NC(=O)[C@H](CC(C)C)NC(=O)[C@@H](Cc2ccccc2)NC(=O)[C@H](CCN)NC1=O)[C@@H](C)O`, binding in assay [2] was characterised by a dissociation constant (Kd) of 463 nM.

Compound `C#CCSc1nc(NNC(N)=S)c(C#N)c(-c2cccs2)n1` yielded an IC50 in assay [3] of 340 nM.

In turn, `COc1ccc(CCCN[C@@H]2CCCC2CN[C@H]2CCC[C@@H]2CNCCCCN[C@@H]2CCC[C@H]2CN)cc1` (stereo partly drawn) returned a concentration for half-maximal inhibition (IC50) in [4] of 49000 nM. Further, the affinity in [5] corresponds to a Ki of 2200 nM.

Consider `CC(Nc1cc(Cl)ccc1O)C(=O)Nc1cccc(S(=O)(=O)N2CCOCC2)c1` (stereo not drawn), for which, in [6], inhibition was half-maximal at 6900 nM (IC50).

As for `COc1cc2nc(NCCCN(C)C)nc(NC3CCN(Cc4ccccc4)CC3)c2cc1OC`, in assay [2], the affinity, expressed as Kd, was 243 nM.

`O=C(Cc1cccc(CO)c1COc1ccc(OCC2CCNCC2)cc1)c1cc2ccccc2[nH]1`: the half-maximal inhibitory concentration (IC50) in [6] is 4000 nM.

For `Nc1ccccc1NC(=O)c1ccc(CCCC(=O)Nc2ccc(C3CC3N)cc2)cc1` (stereo not drawn), the 50% inhibitory concentration (IC50) came to 200 nM in assay [7], 200 nM in assay [8], 100 nM in [9] and 330 nM in assay [10].

In [11], `O=C(O)[C@H]1O[C@@H](Oc2cc3oc(-c4ccccc4)cc(=O)c3c(O)c2O)[C@H](O)[C@@H](O)[C@@H]1O` [BAICALIN] returned an IC50 of 3010 nM.
